Experimental data published in patent publication US20230190677A1, “PHARMACEUTICAL COMPOSITION FOR PREVENTING OR TREATING AGING-RELATED DISEASES” (INDUSTRY ACADEMIC COOPERATION FOUNDATION CHOSUN UNIVERSITY, priority 2021, published 2023).

Tests used:
AMPK [1] = test: Immunoblotting of AMPK activation, oxidative stress-induced senescence; assay type: cell-based, human
Protocol: (§1) H2O2 was used to induce oxidative stress-induced cell cycle arrest and senescence. Briefly, the cells were exposed to 200 μM H2O2 for 2 h and cultured for 2 d without H2O2. In the second treatment with H2O2, the cells were split 1:3, exposed to 200 μM H2O2 for 2 h, and cultured with either normal media (control), Lico D (1 μg/mL), ascorbic acid (500 μM AA; a positive control), or the compound C (0.5 μM; AMPK inhibitor) for 72 h. Cellular senescence was confirmed by SA-β-gal assay and Western blotting as described below.
(§2) Total proteins were extracted with RIPA (radioimmunoprecipitation) lysis buffer system containing phenylmethylsulfonyl fluoride (PMSF), sodium orthovanadate (Na3VO4), and protease inhibitor cocktail (Santa Cruz Biotechnology) at 4° C. for 30 min, and the samples were centrifuged (spun down) at 16,000×g for 20 min. The total protein concentration was quantified using the Pierce BCA Protein Assay Kit (Thermo Fisher Scientific). Proteins (30-50 μg) were loaded and separated via sodium dodecyl sulphate-polyacrylamide gel electrophoresis (SDS-PAGE) gel electrophoresis, followed by blotting on a PVDF membrane (GE Healthcare, Germany). The membranes were blocked with 1% blocking solution containing non-fat dry milk in TBST for 1 h 30 min at RT to prevent non-specific binding of primary antibodies. […]

LC3, BECN1, SQSTM1 = test: Immunoblotting of autophagy markers, oxidative stress-induced senescence; assay type: cell-based, human
Protocol: as §1
(§3) Total proteins were extracted with RIPA (radioimmunoprecipitation) lysis buffer system containing phenylmethylsulfonyl fluoride (PMSF), sodium orthovanadate (Na3VO4), and protease inhibitor cocktail (Santa Cruz Biotechnology) at 4° C. for 30 min, and the samples were centrifuged (spun down) at 16,000×g for 20 min. The total protein concentration was quantified using the Pierce BCA Protein Assay Kit (Thermo Fisher Scientific). Proteins (30-50 μg) were loaded and separated via sodium dodecyl sulphate-polyacrylamide gel electrophoresis (SDS-PAGE) gel electrophoresis, followed by blotting on a PVDF membrane (GE Healthcare, Germany). The membranes were blocked with 1% blocking solution containing non-fat dry milk in TBST for 1 h 30 min at RT to prevent non-specific binding of primary antibodies. Subsequently, the membranes were incubated overnight at 4° C. with the corresponding primary antibodies. Secondary antibodies were conjugated with horseradish peroxidase and visualized using an enhanced chemiluminescence detection kit (GE Healthcare). Densitometry analysis was performed using the ImageJ software.

hBM-MSCs [2] = test: Senescence-associated β-galactosidase (SA-β-gal) staining, oxidative stress-induced senescence; assay type: cell-based, human; conditions: double time 200 μM H2O2 treated hBM-MSCs (40% without treatment); Lico D 1 μg/mL or ascorbic acid 500 μM for 72 h (FIG. 2C)
Protocol: as §1
Senescence-associated β-galactosidase positive cells were identified using an SA-β-gal assay kit (Cell Signaling Technology, Danvers, Mass., USA) according to the manufacturer's instructions. Briefly, after 72 h of treatment, cells were washed with phosphate-buffered saline (PBS) and fixed with 1× fixative for 10-15 min at room temperature. The β-galactosidase staining solution (pH 6.0) was added to the plates and incubated overnight in a dry incubator at 37° C. without CO2. The next day, the β-Gal positive cells were observed under a light microscope (Nikon Eclipse TS100; Tokyo, Japan) and captured using a Canon i-Solution IMTcam3 digital camera (Tokyo, Japan).

p53, p16, and p21 = test: Immunoblotting of senescence markers, oxidative stress-induced senescence; assay type: cell-based, human; conditions: double time H2O2 treated hBM-MSCs, Lico D 1 μg/mL 72 h (FIGS. 3A-3D)
Protocol: as §1, §2

[3] = test system: human melanoma, oral squamous cell carcinoma and lung adenocarcinoma; conditions: previously reported; cited from earlier work
LC3 II, BECN1 and SQSTM1 = test: Immunoblotting of autophagy markers in heart tissue of D-Gal induced aging mice; assay type: in vivo, C57BL/6 mice; conditions: Lico D 0.5 mg/kg/day i.p. vs D-Gal-treated mice (FIGS. 8A-8D)
Protocol: as §3, with “Densitometry analysis was performed using the ImageJ software.” left out
(§4) Six-week-old male C57BL/6 mice (weighing 22±2 g) were purchased from Samtako Bio Korea Co., Ltd. (Osan, Gyeonggi, Korea) and maintained at 23-25° C. under a 12-h light and 12-h dark cycle with free access to food and water in a pathogen-free facility. […] Body weight was measured every week until the end of the experiment. […]

hBM-MSCs [4] = test: MTT cell viability assay (cytotoxic effect); assay type: cell-based, human; conditions: Lico D 0-8 μg/mL for 12 h, MTT (FIG. 1A)
Protocol: (§5) Human bone marrow derived mesenchymal stem cells (hBM-MSCs) were acquired from Cell Engineering for Origin (CEFO), Seoul, Korea. The cells were free from bacterial, viral, and mycoplasmal contamination. […] The cells were grown in Dulbecco's modified Eagle medium (DMEM) (Gibco, Life Technologies, Grand Island, N.Y., USA) supplemented with 10% FBS (Gibco, Life Technologies, USA), L-glutamine, and 1% penicillin/streptomycin solution (Lonza, Walkersville, Md., USA). The cells were manipulated under sterile conditions in a humidified incubator at 37° C. with 5% CO2 and 95% air. The cells were subcultured as soon as they reached confluence. The cells were serially monitored under bright field microscopy (Nikon Eclipse TS100; Tokyo, Japan), and the media was changed every 3 d.
(§6) The cytotoxic and protective effects of Lico D in hBM-MSCs were determined using the methylthiazolyldiphenyl-tetrazolium bromide (MTT) test, according to the manufacturer's instructions. To check the cytotoxic effect, hBM-MSCs were grown in a 96-well plate at a density of 8×10^3 cells per well. […] Cell viability was assessed using a spectrophotometer (Multiskan FC, Thermo Fisher Scientific). […] Following H2O2 treatment, cells were treated with MTT solution for 2 h, and cell viability was evaluated.

[5] = test system: p53 and cleaved caspase 3; test: Immunoblotting of apoptotic markers after H2O2; assay type: cell-based, human; conditions: hBM-MSCs pretreated 1 μg/mL, H2O2 0.7 mM 1 h, vs H2O2 alone (FIG. 1E)
Protocol: To quantify the production of intracellular ROS, we used cell permeable substrate 2′,7′-dichlorofluorescin diacetate (DCFH-DA), which can be converted to highly detectable fluorescent 2′,7′-dichlorofluorescein upon oxidation. The cells were cultured in 12-well plates and 96-well plates for 24 h. After 24 h of culture, the cells were treated with 1 μg/mL of Lico D for 12 h and incubated with 20 μM DCFH-DA for 30 min. The cells were then washed with a phosphate-buffered saline (PBS) solution and incubated with H2O2 (0.7 mM) for 1 h at 37° C. The cells were then fixed with 4% paraformaldehyde at room temperature (RT) for 15 min and the nuclei were stained with Hoechst. Then, the cells were observed under a fluorescent microscope (Nikon Eclipse Ti2; Japan), and the images were captured (Nikon DS-Ri2; Japan) and analyzed using the Image J software. […]
Total proteins were extracted with RIPA (radioimmunoprecipitation) lysis buffer system containing phenylmethylsulfonyl fluoride (PMSF), sodium orthovanadate (Na3VO4), and protease inhibitor cocktail (Santa Cruz Biotechnology) at 4° C. for 30 min, and the samples were centrifuged (spun down) at 16,000×g for 20 min. The total protein concentration was quantified using the Pierce BCA Protein Assay Kit (Thermo Fisher Scientific). […]

RAGE = test: qRT-PCR of RAGE in D-Gal induced aging mice; assay type: in vivo, C57BL/6 mice; conditions: hippocampus, Lico D 0.5 mg/kg/day i.p. vs D-Gal treated mice (FIG. 5C)
Protocol: (§7) Six-week-old male C57BL/6 mice (weighing 22±2 g) were purchased from Samtako Bio Korea Co., Ltd. (Osan, Gyeonggi, Korea) and maintained at 23-25° C. under a 12-h light and 12-h dark cycle with free access to food and water in a pathogen-free facility. All animal experiments were approved by the Institutional Animal Care and Use Committee of Chosun University (CIACUC2020-S0009). After a week of acclimation, the animals were randomly divided into three groups (four mice per group): normal control group (PBS alone), D-Galactose model group (150 mg/kg/day), and D-Galactose +Lico D (0.5 mg/kg/day). The mice were intraperitoneally injected with either PBS or D-Gal for 10 weeks and from the third week onwards, the mice were intraperitoneally injected with Lico D for 8 weeks (FIG. 5A). Body weight was measured every week until the end of the experiment. Thereafter, the MWM (Morris water maze) test was performed for one week.
RNAisoPlus (Takara) was used to isolate total RNA from the hippocampus and heart tissues. Total RNA (2.5 μg) was then reverse-transcribed using PrimescriptTM II 1st strand cDNA synthesis kit (Takara) and quantified using the Power SYBR Green PCR Master mix (Applied BioSystems). To amplify β-actin and RAGE, the mouse primers in Table 1 below were used. […]

D-Gal induced aging mice = test: Morris water maze (MWM) test in D-Gal induced aging mice; assay type: in vivo, C57BL/6 mice
Protocol: as §7

[6] = Body weight in D-Gal induced aging mice; assay type: in vivo, C57BL/6 mice; conditions: D-Gal 150 mg/kg/day i.p. 10 weeks, Lico D 0.5 mg/kg/day i.p. 8 weeks, measured weekly (FIG. 5B)
Protocol: as §7

hBM-MSCs [7] = test: Detection of intracellular ROS (DCFH-DA); assay type: cell-based, human; conditions: hBM-MSCs pretreated 1 μg/mL 12 h, H2O2 0.7 mM 1 h, vs H2O2 alone (FIGS. 1C, 1D)
Protocol: To quantify the production of intracellular ROS, we used cell permeable substrate 2′,7′-dichlorofluorescin diacetate (DCFH-DA), which can be converted to highly detectable fluorescent 2′,7′-dichlorofluorescein upon oxidation. The cells were cultured in 12-well plates and 96-well plates for 24 h. After 24 h of culture, the cells were treated with 1 μg/mL of Lico D for 12 h and incubated with 20 μM DCFH-DA for 30 min. The cells were then washed with a phosphate-buffered saline (PBS) solution and incubated with H2O2 (0.7 mM) for 1 h at 37° C. The cells were then fixed with 4% paraformaldehyde at room temperature (RT) for 15 min and the nuclei were stained with Hoechst. Then, the cells were observed under a fluorescent microscope (Nikon Eclipse Ti2; Japan), and the images were captured (Nikon DS-Ri2; Japan) and analyzed using the Image J software. To analyze the apoptotic markers, the cells were pretreated with 1 μg/mL of Lico D followed by incubation with H2O2 (0.7 mM) for 1 h at 37° C., and then the proteins were isolated as described below.

AMPK [8] = test: Immunoblotting of AMPK activation in heart and hippocampus tissues of D-Gal induced aging mice; assay type: in vivo, C57BL/6 mice
Protocol: as §3, with “Densitometry analysis was performed using the ImageJ software.” left out
as §4

p53 and p21 = test: Immunoblotting of senescence markers in heart and hippocampus tissues of D-Gal induced aging mice; assay type: in vivo, C57BL/6 mice
Protocol: as §3, with “Densitometry analysis was performed using the ImageJ software.” left out
as §4

hBM-MSCs [9] = test: MTT cell viability assay (protective effect against H2O2); assay type: cell-based, human; conditions: hBM-MSCs pre-treated with 1 μg/mL for 12 h, then H2O2 0-1 mM for 1 h (FIG. 1B)
Protocol: as §5, §6

[10] = oxidative stress-induced senescent hBM-MSCs, Lico D 1 μg/mL (FIGS. 4A-4D)

c1cc(-c2cnn3cc(-c4ccc(OCCN5CCCCC5)cc4)cnc23)ccn1 [CC, reference compound]
Lico D-mediated AMPK activation upon treatment with CC (AMPK [1]; senescent hBM-MSCs, compound C 0.5 μM with Lico D (FIGS. 3E, 3F)): abolished | AMPK-mediated autophagy upon treatment with CC (LC3, BECN1, SQSTM1; senescent hBM-MSCs, compound C 0.5 μM with Lico D (FIGS. 4A-4D)): inhibited

O=C1O[C@H]([C@@H](O)CO)C(O)=C1O [ascorbic acid, reference compound]
number of SA-β-gal-positive cells (hBM-MSCs [2]): 17%

COc1c(/C=C/C(=O)c2ccc(O)c(CC=C(C)C)c2)ccc(O)c1O [Lico D, Licochalcone D]
expression of senescence markers p53, p16, and p21 (p53, p16, and p21): reduced | anticancer activity [3]: anticancer activity in a dose-dependent manner | expression of autophagy markers (LC3 II, BECN1 and SQSTM1) (LC3 II, BECN1 and SQSTM1): markedly increased | AMPK activation (pAMPK/AMPK) (AMPK [1]; oxidative stress-induced senescent hBM-MSCs, Lico D 1 μg/mL 72 h (FIGS. 3E, 3F)): significantly restored | cell viability (hBM-MSCs [4]): no significant changes in cell viability | expression of apoptotic proteins p53 and cleaved caspase 3 [5]: reduced | RAGE expression at the mRNA level (RAGE): significantly reduced | number of times of target platform crossing (MWM) (D-Gal induced aging mice; Lico D 0.5 mg/kg/day i.p. vs D-Gal treated mouse (FIG. 6C)): tendency of increasing | escape latency (MWM) (D-Gal induced aging mice; Lico D 0.5 mg/kg/day i.p. vs D-Gal treated mouse, similar to control (FIG. 6A)): markedly short time | duration in target quadrant (MWM) (D-Gal induced aging mice; Lico D 0.5 mg/kg/day i.p. vs D-Gal treated mouse, similar to control (FIG. 6B)): significantly longer time | body weight [6]: No significant differences | number of SA-β-gal-positive cells (hBM-MSCs [2]): 13% | intracellular ROS levels (hBM-MSCs [7]): significantly reduced | AMPK activation, heart (AMPK [8]; heart tissue, Lico D 0.5 mg/kg/day i.p. vs D-Gal treatment (FIGS. 7D, 7E)): significantly increased | AMPK activation, hippocampus (AMPK [8]; hippocampus tissue, Lico D 0.5 mg/kg/day i.p. vs D-Gal treatment (FIGS. 7I, 7J)): significantly increased | expression levels of p53 and p21, heart (p53 and p21; heart tissue, Lico D 0.5 mg/kg/day i.p. vs D-Gal-injected mice (FIGS. 7A-7C)): significantly reduced | expression levels of p53 and p21, hippocampus (p53 and p21; hippocampus tissue, Lico D 0.5 mg/kg/day i.p. vs D-Gal-injected mice (FIGS. 7F-7H)): significantly reduced | expression levels of LC3 and BECN1 (LC3, BECN1, SQSTM1; [10]): significantly increased | expression of SQSTM1 (LC3, BECN1, SQSTM1; [10]): decreased | cell viability under H2O2 oxidative stress (hBM-MSCs [9]): significantly increased
